Data on seven compounds can be found in patent US10029984B2, “Mono- or di-substituted indole derivatives as dengue viral replication inhibitors” (Janssen Pharmaceuticals, Inc., priority 2015, dated 2018).

The structures appear in SMILES notation.

One series has as its system DENV-1 strain TC974#666. In words: Tetravalent RT-qPCR assay Protocol A, serotype 1. It counts as cell-based. The conditions noted are these: Dengue virus, DENV1, 72 h; RT-qPCR serotype 1 TC974#666, Vero cells, day 3. Here is the method: (§1) The antiviral activity of the compounds of the invention was tested against DENV-1 strain TC974#666 (NCPV; Table 6), DENV-2 strain 16681 (Table 7), DENV-3 strain H87 (NCPV; Table 8) and DENV-4 strains H241 (NCPV; Table 9) in a RT-qPCR assay. Therefore, Vero cells were infected with either DENV-1, or -2, or -3, or -4 in the presence or absence of test compounds. At day 3 post-infection, the cells were lysed and cell lysates were used to prepare cDNA of both a viral target (the 3′UTR of DENV; table 2) and a cellular reference gene (β-actin, table 2). Subsequently, a duplex real time PCR was performed on a Lightcycler480 instrument. The generated Cp value is inversely proportional to the amount of RNA expression of these targets. Inhibition of DENV replication by a test compound result in a shift of Cp's for the 3′UTR gene. On the other hand, if a test compound is toxic to the cells, a similar effect on β-actin expression will be observed. The comparative ΔΔCp method is used to calculate EC50, which is based on the relative gene expression of the target gene (3′UTR) normalized with the cellular housekeeping gene (β-actin).
(§2) The culture medium consisted of minimal essential medium supplemented with 2% of heat-inactivated fetal calf serum, 0.04% gentamycin (50 mg/mL) and 2 mM of L-glutamine. Vero cells, obtained from ECACC, were suspended in culture medium and 75 μL/well was added in 96-well plates (10000 cells/well), which already contain the antiviral compounds. Typically, these plates contain a 4-fold serial dilution of 9 dilution steps of the test compound at 200 times the final concentration in 100% DMSO (500 nL; final concentration range: 25 μM-0.00038 μM). In addition, each plate contains wells which are assigned as virus controls (containing cells and virus in the absence of compound) and cell controls (containing cells in the absence of virus and compound). Once the cells were added in the plates, the plates were incubated in a fully humidified incubator (37° C., 5% CO2) until the next day. Then, DENV-1 strain TC974#666 at an MOI of 0.6, DENV-2 strain 16681 at an MOI of 0.01, DENV-3 strain H87 at an MOI of 1.0 and DENV-4 strains H241 at an MOI of 0.2 and SG/06K2270DK1/2005 at an MOI of 0.16, were added. Therefore, 25 μL of virus suspension was added to all the wells containing test compound and to the wells assigned as virus control. In parallel, 25 μL of culture medium was added to the cell controls. Next, the plates were incubated for 3 days in a fully humidified incubator (37° C., 5% CO2). After 3 days, the supernatant was removed from the wells and the cells were washed twice with ice-cold PBS (˜100 μL). The cell pellets within the 96-well plates were stored at −80° C. for at least 1 day. Next, RNA was extracted using the Cells-to-CT™ lysis kit, according to the manufacture's guideline (Applied Biosystems). The cell lysates can be stored at −80° C. or immediately used in the reverse transcription step.
(§3) In preparation of the reverse transcription step, mix A (table 3A) was prepared and 7.57 μL/well was dispensed in a 96-well plate. After addition of 5 μL of the cell lysates, a five minute denaturation step at 75° C. was performed (table 3B). Afterwards, 7.43 μL of mix B was added (table 3C) and the reverse transcription step was initiated (table 3D) to generate cDNA.
(§4) Finally, a RT-qPCR mix was prepared, mix C (table 4A), dispensed in 96-well LightCycler qPCR plates to which 3 μL of cDNA was added and the qPCR was performed according to the conditions in table 4B on a LightCycler 480. Using the LightCycler software and an in-house LIMS system, dose response curves for each compound were calculated and the half maximal effective concentration (EC50) and the half maximal cytotoxic concentration (CC50) were determined.
(Quantitative PCR measures a nucleic acid by following its amplification.)

For the next series, the system named is DENV-3 strain H87. Briefly: Tetravalent RT-qPCR assay Protocol A, serotype 3. It counts as cell-based. The conditions noted are these: Dengue virus, DENV3, 72 h; RT-qPCR serotype 3 H87, Vero cells, day 3. Here is the method: as §1, §2, §3, §4
A further series concerns DENV-2 16681 strain. Briefly: DENV-2 antiviral assay (eGFP-labeled virus in Vero cells). It counts as cell-based, Dengue virus. The conditions noted are these: DENV-2 16681 eGFP, MOI 0.5, 3 days. Here is the method:
The antiviral activity of all the compounds of the invention was tested against DENV-2 16681 strain which was labeled with enhanced green fluorescent protein (eGPF; Table 1). The culture medium consists of minimal essential medium supplemented with 2% of heat-inactivated fetal calf serum, 0.04% gentamycin (50 mg/mL) and 2 mM of L-glutamine. Vero cells, obtained from ECACC, were suspended in culture medium and 25 μL was added to 384-well plates (2500 cells/well), which already contain the antiviral compounds. Typically, these plates contain a 4-fold serial dilution of 9 dilution steps of the test compound at 200 times the final concentration in 100% DMSO (200 nL). In addition, each compound concentration is tested in quadruplicate (final concentration range: 25 μM-0.00038 μM). Finally, each plate contains wells which are assigned as virus controls (containing cells and virus in the absence of compound), cell controls (containing cells in the absence of virus and compound) and medium controls (containing medium in the absence of cells, virus and compounds). To the wells assigned as medium control, 25 μL of culture medium was added instead of Vero cells. Once the cells were added to the plates, the plates were incubated for 30 minutes at room temperature to allow the cells to distribute evenly within the wells. Next, the plates were incubated in a fully humidified incubator (37° C., 5% CO2) until the next day. Then, DENV-2 strain 16681, labeled with eGFP, was added at a multiplicity of infection (MOI) of 0.5. Therefore, 15 μL of virus suspension was added to all the wells containing test compound and to the wells assigned as virus control. In parallel, 15 μL of culture medium was added to the medium and cell controls. Next, the plates were incubated for 3 days in a fully humidified incubator (37° C., 5% CO2). At the day of the read out, the eGFP fluorescence was measured using an automated fluorescence microscope at 488 nm (blue laser). Using an in-house LIMS system, inhibition dose response curves for each compound were calculated and the half maximal effective concentration (EC50) was determined. Therefore, the percent inhibition (I) for every test concentration is calculated using the following formula: I=100*(ST−SCC)/(SVC−SCC); ST, SCC and SVC are the amount of eGFP signal in the test compound, cell control and virus control wells, respectively. The EC50 represents the concentration of a compound at which the virus replication is inhibited with 50%, as measured by a 50% reduction of the eGFP fluorescent intensity compared to the virus control. The EC50 is calculated using linear interpolation.

The subject of the next series is DENV-2 strain 16681. Briefly: Tetravalent RT-qPCR assay Protocol A, serotype 2. The class given is cell-based. The conditions noted are these: Dengue virus, DENV2, 72 h; RT-qPCR serotype 2 16681, Vero cells, day 3. How it is done:
as §1, §2, §3, §4

A short description of series [1]: in vitro. The class given is cell-based. The conditions noted are these: African green monkey, CC50. Here is the method: as §1, §2, §4
A further series has as its system Vero cells. In words: in vitro. The class given is cell-based. The conditions noted are these: African green monkey. How it is done: (§5) In parallel, the toxicity of the compounds was assessed on the same plates. Once the read-out for the eGFP signal was done, 10 μL of resazurin, a cell viability stain, was added to all wells of the 384-well plates. The resazurin assay is based on the reduction of the blue resazurin by NADH, produced by the cells, into the highly fluorescent product, resorufin. The formation of pink fluorescent resorufin is directly related to the number of viable cells in the well. The plates were incubated for an additional 5 hours in a fully humidified incubator (37° C., 5% CO2). Next, the plates were measured on an Infinite reader (Tecan) using an excitation wavelength of 530 nm. The half maximal cytotoxic concentration (CC50) was also determined, defined as the concentration required to reduce the resazurin conversion by 50% compared to that of the cell control wells. Finally, the selectivity index (SI) was determined for the compounds, which was calculated as followed: SI=CC50/EC50.

In another series the test system is DENV-4 strains H241. Briefly: Tetravalent RT-qPCR assay Protocol A, serotype 4. It counts as cell-based. The conditions noted are these: Dengue virus, DENV4, 72 h; RT-qPCR serotype 4 H241, Vero cells, day 3. Here is the method:
as §1, §2, §3, §4

The nature of series [2]: in vitro. It counts as cell-based. Particulars: African green monkey, CC50. How it is done:
as §5
This is another data set of the same source.

`COc1cc(NC(C(=O)c2c[nH]c3cc(F)ccc23)c2ccc(F)cc2OC)cc(S(C)(=O)=O)c1` (single isomer, unassigned) [Enantiomer 1A, 1-(6-fluoro-1H-indol-3-yl)-2-(4-fluoro-2-methoxyphenyl)-2-((3-methoxy-5-(methylsulfonyl)phenyl)amino)ethanone]: the 50% effective concentration (EC50) was found to be 5.18 nM in the series with DENV-1 strain TC974#666; 49.6 nM in the series on DENV-3 strain H87; 0.88 nM in the series with DENV-2 16681 strain (listed as 1A*); 0.83 nM in the series on DENV-2 strain 16681; 165 nM with DENV-4 strains H241. In “in vitro [1]”, this compound displayed a CC50 at 3 days of 3520 nM. In the series on Vero cells, this compound yielded a CC50 of 5900 nM.
Consider `COc1cc(NC(C(=O)c2c[nH]c3c(C)c(Cl)ccc23)c2ccc(F)cc2OC)cc(S(C)(=O)=O)c1` (single isomer, unassigned) [Enantiomer 3A, 1-(6-chloro-7-methyl-1H-indol-3-yl)-2-(4-fluoro-2-methoxyphenyl)-2-((3-methoxy-5-(methylsulfonyl)phenyl)amino)ethanone], for which the EC50 with DENV-1 strain TC974#666 was 7.18 nM; with DENV-3 strain H87 it was 58.6 nM; with DENV-2 16681 strain (listed as 3A*), 0.3 nM; in the series with DENV-2 strain 16681, 0.285 nM; in the series on DENV-4 strains H241 it was 121 nM. Also, in “in vitro [1]”, the CC50 at 3 days was 3910 nM. Moreover, in the series with Vero cells, the midpoint of cytotoxicity, the CC50, lay at 4800 nM.
As to `COc1cc(NC(C(=O)c2c[nH]c3cc(Cl)ccc23)c2ccc(F)cc2OC)cc(S(C)(=O)=O)c1` (single isomer, unassigned) [Enantiomer 4A, 1-(6-chloro-1H-indol-3-yl)-2-(4-fluoro-2-methoxyphenyl)-2-((3-methoxy-5-(methylsulfonyl)phenyl)amino)ethanone], the EC50 in the series on DENV-1 strain TC974#666 worked out at 4.22 nM; with DENV-3 strain H87, 55.3 nM; with DENV-2 16681 strain (listed as 4A*) it was 0.5 nM; with DENV-2 strain 16681, 0.377 nM; in the series with DENV-4 strains H241, 131 nM. The CC50 at 3 days in the series “in vitro [1]” turned out to be 3590 nM. Besides, in the series with Vero cells, the 50% cytotoxic concentration (CC50) is 4400 nM.
As for `COc1cc(NC(C(=O)c2c[nH]c3cc(OC)ccc23)c2ccc(F)cc2OC)cc(S(C)(=O)=O)c1` (single isomer, unassigned) [Enantiomer 5B, 2-(4-fluoro-2-methoxyphenyl)-1-(6-methoxy-1H-indol-3-yl)-2-((3-methoxy-5-(methylsulfonyl)phenyl)amino)ethanone], the EC50 amounted to 8.89 nM in the series on DENV-1 strain TC974#666; 100 nM in the series on DENV-3 strain H87; 1 nM with DENV-2 16681 strain (listed as 5B*); 1.23 nM in the series with DENV-2 strain 16681; 186 nM with DENV-4 strains H241. The cytotoxic concentration (CC50) in the series on Vero cells was > 13000 nM.
As for `COc1cc(NC(C(=O)c2c[nH]c3c(F)cc(C)cc23)c2ccc(F)cc2OC)cc(S(C)(=O)=O)c1` (single isomer, unassigned) [Enantiomer 6A, 2-(4-fluoro-2-methoxyphenyl)-1-(7-fluoro-5-methyl-1H-indol-3-yl)-2-((3-methoxy-5-(methylsulfonyl)phenyl)amino)ethanone], the EC50 was determined as 9.7 nM in the series with DENV-1 strain TC974#666; 123 nM with DENV-3 strain H87; 2.7 nM with DENV-2 16681 strain (listed as 6A*); 3.48 nM in the series on DENV-2 strain 16681; 239 nM in the series on DENV-4 strains H241. For the same compound, the CC50 at 3 days in the series “in vitro [1]” stood at 4610 nM. Further, in the series with Vero cells, the CC50 is 5000 nM.
For the compound `COc1cc(NC(C(=O)c2c[nH]c3cc(F)c(F)cc23)c2ccc(F)cc2OC)cc(S(C)(=O)=O)c1` (single isomer, unassigned) [Enantiomer 7A, 1-(5,6-difluoro-1H-indol-3-yl)-2-(4-fluoro-2-methoxyphenyl)-2-((3-methoxy-5-(methylsulfonyl)phenyl)amino)ethanone], the concentration giving a half-maximal response (EC50) in the series with DENV-1 strain TC974#666 came out at 3.7 nM; with DENV-3 strain H87 it was 61.6 nM; in the series on DENV-2 16681 strain (listed as 7A*) it was 0.76 nM; in the series on DENV-2 strain 16681 it was 0.525 nM; in the series on DENV-4 strains H241 it was 142 nM. Besides, in “in vitro [1]”, the midpoint of cytotoxicity, the CC50 at 3 days, lay at 3870 nM. The same compound came in with a CC50 in the series on Vero cells of 4400 nM.
On to `COc1cc(NC(C(=O)c2c[nH]c3c(Cl)c(OC)ccc23)c2ccc(F)cc2OC)cc(S(C)(=O)=O)c1` (single isomer, unassigned) [Enantiomer 12A, 1-(7-chloro-6-methoxy-1H-indol-3-yl)-2-(4-fluoro-2-methoxyphenyl)-2-((3-methoxy-5-(methylsulfonyl)phenyl)amino)ethanone], for which the EC50 in the series on DENV-1 strain TC974#666 is 14 nM; in the series with DENV-3 strain H87 it was 73.8 nM; in the series with DENV-2 16681 strain (listed as 12A*) it was 0.42 nM; in the series with DENV-2 strain 16681 it was 0.25 nM; in the series with DENV-4 strains H241, 261 nM. For the same compound, the CC50 in “in vitro [2]” was > 25000 nM.

A word on the EC50: it is the concentration giving half of the maximal effect. For orientation: CC50 means the concentration at which the toxic effect on the cells reaches its halfway point.
